Assay results from patent US11000033B2, “Ketone or oxime compound, and herbicide” (NISSAN CHEMICAL CORPORATION, priority 2014, dated 2021).

Legend:
Format in all cases: in vivo
Monochoria vaginalis = experiment: Test Example 2: herbicidal activity, application during weed generation in submerged conditions (symbol C); conditions: Table 23; application herbicide amount 320 g/ha; grade 0-5 by criteria of Test Example 1
Method in brief: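 Seeds sown in flooded alluvial soil (4 cm water) were grown in a 25-30° C greenhouse. At the one- to two-leaf stage, diluted emulsion of compound was applied to the water surface at a predetermined rate. Effect was scored 3 weeks later.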

[1] = tested on: directly sowed rice plant; experiment: Test Example 3: effect on crop by foliage application, Wagner pot (symbol b); conditions: application herbicide amount 320 g/ha
Method in brief: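 Alluvial soil in a 1/10000-are Wagner pot was flooded to a water depth of 0.1–0.5 cm. Echinochloa crus-galli var. crus-galli, Leptochloa chinensis, Cyperus difformis and rice were sown into it and grown in a greenhouse at 25–30 °C.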

Digitaria ciliaris [2] = experiment: Test Example 4: herbicidal effect by soil treatment (symbol F); conditions: application herbicide amount 320 g/ha
Method in brief: (§1)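 Seeds were sown in sterilized diluvial soil, covered with about 1.5 cm of soil, and the soil surface was sprayed with a water-diluted emulsion of the compound at a predetermined rate. Plants grew in a greenhouse at 25° C. to 30° C.; effects were scored visually 3 weeks after application.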

[3] = tested on: Echinochloa crus-galli var. crus-galli; experiment: Test Example 4: herbicidal effect by soil treatment (symbol H); conditions: application herbicide amount 320 g/ha
Method in brief: as §1

Avena fatua [4] = experiment: Test Example 4: herbicidal effect by soil treatment (symbol I); conditions: application herbicide amount 320 g/ha
Method in brief: as §1

Alopecurus myosuroides = experiment: Test Example 4: herbicidal effect by soil treatment (symbol J); conditions: application herbicide amount 320 g/ha
Method in brief: as §1

Lolium multiflorum Lam. [5] = experiment: Test Example 4: herbicidal effect by soil treatment (symbol K); conditions: application herbicide amount 320 g/ha
Method in brief: as §1

Apera spica-venti [6] = experiment: Test Example 4: herbicidal effect by soil treatment (symbol L); conditions: application herbicide amount 320 g/ha
Method in brief: as §1

rice = experiment: Test Example 4: effect on crop by soil treatment (symbol b); conditions: application herbicide amount 320 g/ha
Method in brief: (§2)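 Plants grew in a 25° C. to 30° C. greenhouse after spot-sowing of seeds, including beet, rapeseed, wheat and rice, into sterilized diluvial soil under roughly 1.5 cm of cover soil.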

beet = experiment: Test Example 4: effect on crop by soil treatment (symbol f); conditions: application herbicide amount 320 g/ha
Method in brief: as §2

rapeseed [7] = experiment: Test Example 4: effect on crop by soil treatment (symbol g); conditions: application herbicide amount 320 g/ha
Method in brief: as §2

Digitaria ciliaris [8] = experiment: Test Example 5: herbicidal effect by foliage application, plastic box (symbol F); conditions: 320 g/ha, 3 weeks after application
Method in brief: (§3)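 Greenhouse foliar test: seedlings at 14 days, grown 25° C. to 30° C. in sterilized diluvial soil; compound applied as an aqueous dilution of an emulsion; response read 3 weeks after spraying.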

Avena fatua [9] = experiment: Test Example 5: herbicidal effect by foliage application, plastic box (symbol I); conditions: 320 g/ha, 3 weeks after application
Method in brief: as §3

Lolium multiflorum Lam. [10] = experiment: Test Example 5: herbicidal effect by foliage application, plastic box (symbol K); conditions: 320 g/ha, 3 weeks after application
Method in brief: as §3

Apera spica-venti [11] = experiment: Test Example 5: herbicidal effect by foliage application, plastic box (symbol L); conditions: 320 g/ha, 3 weeks after application
Method in brief: as §3

Abutilon theophrasti = experiment: Test Example 5: herbicidal effect by foliage application, plastic box (symbol M); conditions: 320 g/ha, 3 weeks after application
Method in brief: as §3

Amaranthus retroflexus = experiment: Test Example 5: herbicidal effect by foliage application, plastic box (symbol N); conditions: 320 g/ha, 3 weeks after application
Method in brief: as §3

Chenopodium album = experiment: Test Example 5: herbicidal effect by foliage application, plastic box (symbol O); conditions: 320 g/ha, 3 weeks after application
Method in brief: as §3

Stellaria media = experiment: Test Example 5: herbicidal effect by foliage application, plastic box (symbol P); conditions: 320 g/ha, 3 weeks after application
Method in brief: as §3

Galium spurium = experiment: Test Example 5: herbicidal effect by foliage application, plastic box (symbol Q); conditions: 320 g/ha, 3 weeks after application
Method in brief: as §3

Veronica persica = experiment: Test Example 5: herbicidal effect by foliage application, plastic box (symbol R); conditions: 320 g/ha, 3 weeks after application
Method in brief: as §3

wheat = experiment: Test Example 5: effect on crop by foliage application, plastic box (symbol e); conditions: 320 g/ha, 3 weeks after application
Method in brief: (§4)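 Crop and weed seeds sown in spots in sterilized diluvial soil in plastic boxes and covered with about 1.5 cm soil. Plants raised in a greenhouse at 25° C. to 30° C. for foliar application.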

rapeseed [12] = experiment: Test Example 5: effect on crop by foliage application, plastic box (symbol g); conditions: 320 g/ha, 3 weeks after application
Method in brief: as §4

Structure (SMILES)	Herbicidal effect grade, C: Monochoria vaginalis (Monochoria vaginalis)	effect on crop b (directly sowed rice plant), grade 0-5 [1]	F: Digitaria ciliaris, herbicidal effect grade (Digitaria ciliaris [2])	H: Echinochloa crus-galli var. crus-galli, herbicidal effect grade [3]	I: Avena fatua, herbicidal effect grade (Avena fatua [4])	J: Alopecurus myosuroides, herbicidal effect grade (Alopecurus myosuroides)	K: Lolium multiflorum Lam., herbicidal effect grade (Lolium multiflorum Lam. [5])	L: Apera spica-venti, herbicidal effect grade (Apera spica-venti [6])	F: Digitaria ciliaris, herbicidal effect (criteria of Test Example 1) (Digitaria ciliaris [8])	I: Avena fatua, herbicidal effect (criteria of Test Example 1) (Avena fatua [9])	K: Lolium multiflorum Lam., herbicidal effect (criteria of Test Example 1) (Lolium multiflorum Lam. [10])	L: Apera spica-venti, herbicidal effect (criteria of Test Example 1) (Apera spica-venti [11])	M: Abutilon theophrasti, herbicidal effect (criteria of Test Example 1) (Abutilon theophrasti)	N: Amaranthus retroflexus, herbicidal effect (criteria of Test Example 1) (Amaranthus retroflexus)	O: Chenopodium album, herbicidal effect (criteria of Test Example 1) (Chenopodium album)	P: Stellaria media, herbicidal effect (criteria of Test Example 1) (Stellaria media)	Q: Galium spurium, herbicidal effect (criteria of Test Example 1) (Galium spurium)	R: Veronica persica, herbicidal effect (criteria of Test Example 1) (Veronica persica)	e: wheat, effect on crop (criteria of Test Example 1) (wheat)	g: rapeseed, effect on crop (criteria of Test Example 1) (rapeseed [12])	other results
CON=C(C)CC1CC(O)=C(c2c(C)cc(C(C)=NOC)cc2C)C1=O (stereo not drawn) [6-065]	2 (Herbicidal ratio of 20% or higher and lower than 40%)	5 (Herbicidal ratio of 90% or more (almost completely withered))	5 (Herbicidal ratio of 90% or more (almost completely withered))	5 (Herbicidal ratio of 90% or more (almost completely withered))	4 (Herbicidal ratio of 70% or higher and lower than 90%)	5 (Herbicidal ratio of 90% or more (almost completely withered))	5 (Herbicidal ratio of 90% or more (almost completely withered))	5 (Herbicidal ratio of 90% or more (almost completely withered))	5 (Herbicidal ratio of 90% or more (almost completely withered))	5 (Herbicidal ratio of 90% or more (almost completely withered))	5 (Herbicidal ratio of 90% or more (almost completely withered))	5 (Herbicidal ratio of 90% or more (almost completely withered))	2 (Herbicidal ratio of 20% or higher and lower than 40%)	0 (Herbicidal ratio of 5% or lower (almost no effect))	1 (Herbicidal ratio of 5% or higher and lower than 20%)	3 (Herbicidal ratio of 40% or higher and lower than 70%)	3 (Herbicidal ratio of 40% or higher and lower than 70%)	3 (Herbicidal ratio of 40% or higher and lower than 70%)	5 (Herbicidal ratio of 90% or more (almost completely withered))	4 (Herbicidal ratio of 70% or higher and lower than 90%)	b: directly sowed rice plant, effect on crop grade (rice): 5 (Herbicidal ratio of 90% or more (almost completely withered)); f: beet, effect on crop grade (beet): 2 (Herbicidal ratio of 20% or higher and lower than 40%); g: rapeseed, effect on crop grade (rapeseed [7]): 3 (Herbicidal ratio of 40% or higher and lower than 70%)
COc1cc(Br)cc(C)c1C1=C(O)CC(CC(C)=O)C1=O (stereo not drawn) [7-027, 2-(4-bromo-2-methoxy-6-methylphenyl)-3-hydroxy-5-(2-oxopropyl)cyclopent-2-enone]	2 (Herbicidal ratio of 20% or higher and lower than 40%)	–	–	–	–	–	–	–	5 (Herbicidal ratio of 90% or more (almost completely withered))	5 (Herbicidal ratio of 90% or more (almost completely withered))	5 (Herbicidal ratio of 90% or more (almost completely withered))	5 (Herbicidal ratio of 90% or more (almost completely withered))	0 (Herbicidal ratio of 5% or lower (almost no effect))	0 (Herbicidal ratio of 5% or lower (almost no effect))	0 (Herbicidal ratio of 5% or lower (almost no effect))	0 (Herbicidal ratio of 5% or lower (almost no effect))	0 (Herbicidal ratio of 5% or lower (almost no effect))	0 (Herbicidal ratio of 5% or lower (almost no effect))	0 (Herbicidal ratio of 5% or lower (almost no effect))	2 (Herbicidal ratio of 20% or higher and lower than 40%)	b (directly sowed rice plant) effect on crop grade ([1]; Table 24): 5 (Herbicidal ratio of 90% or more (almost completely withered)); Herbicidal effect grade, F: Digitaria ciliaris (Digitaria ciliaris [2]): 5 (Herbicidal ratio of 90% or more (almost completely withered)); Herbicidal effect grade, H: Echinochloa crus-galli var. crus-galli [3]: 5 (Herbicidal ratio of 90% or more (almost completely withered)); Herbicidal effect grade, I: Avena fatua (Avena fatua [4]): 0 (Herbicidal ratio of 5% or lower (almost no effect)); Herbicidal effect grade, J: Alopecurus myosuroides (Alopecurus myosuroides): 5 (Herbicidal ratio of 90% or more (almost completely withered)); Herbicidal effect grade, K: Lolium multiflorum Lam. (Lolium multiflorum Lam. [5]): 5 (Herbicidal ratio of 90% or more (almost completely withered)); Herbicidal effect grade, L: Apera spica-venti (Apera spica-venti [6]): 5 (Herbicidal ratio of 90% or more (almost completely withered)); Effect on crop grade, b: directly sowed rice plant (rice): 5 (Herbicidal ratio of 90% or more (almost completely withered)); Effect on crop grade, f: beet (beet): 0 (Herbicidal ratio of 5% or lower (almost no effect)); Effect on crop grade, g: rapeseed (rapeseed [7]): 0 (Herbicidal ratio of 5% or lower (almost no effect))
CON=C(C)CC1CC(O)=C(c2c(C)cc(Br)cc2OC)C1=O (stereo not drawn) [6-076, 2-(4-bromo-2-methoxy-6-methylphenyl)-3-hydroxy-5-{2-(methoxyimino)propyl}cyclopent-2-enone]	1 (Herbicidal ratio of 5% or higher and lower than 20%)	5 (Herbicidal ratio of 90% or more (almost completely withered))	5 (Herbicidal ratio of 90% or more (almost completely withered))	5 (Herbicidal ratio of 90% or more (almost completely withered))	3 (Herbicidal ratio of 40% or higher and lower than 70%)	0 (Herbicidal ratio of 5% or lower (almost no effect))	5 (Herbicidal ratio of 90% or more (almost completely withered))	5 (Herbicidal ratio of 90% or more (almost completely withered))	5 (Herbicidal ratio of 90% or more (almost completely withered))	5 (Herbicidal ratio of 90% or more (almost completely withered))	5 (Herbicidal ratio of 90% or more (almost completely withered))	5 (Herbicidal ratio of 90% or more (almost completely withered))	5 (Herbicidal ratio of 90% or more (almost completely withered))	1 (Herbicidal ratio of 5% or higher and lower than 20%)	2 (Herbicidal ratio of 20% or higher and lower than 40%)	2 (Herbicidal ratio of 20% or higher and lower than 40%)	3 (Herbicidal ratio of 40% or higher and lower than 70%)	2 (Herbicidal ratio of 20% or higher and lower than 40%)	5 (Herbicidal ratio of 90% or more (almost completely withered))	4 (Herbicidal ratio of 70% or higher and lower than 90%)	b: directly sowed rice plant, effect on crop grade (rice): 5 (Herbicidal ratio of 90% or more (almost completely withered)); f: beet, effect on crop grade (beet): 0 (Herbicidal ratio of 5% or lower (almost no effect)); g: rapeseed, effect on crop grade (rapeseed [7]): 2 (Herbicidal ratio of 20% or higher and lower than 40%)
